Molecular target: Catenin beta-1/Transcription factor 7-like 2 (Homo sapiens, UniProt P35222+Q9NQB0)
Assay: Inhibition of human TCF4/ flag epitope-tagged beta-catenin (unknown origin) interaction transfected in human HCT116 cells after 24 hrs by beta-galactosidase/luciferase reporter gene assay

Sequence of Catenin beta-1/Transcription factor 7-like 2 (P35222 whole entry): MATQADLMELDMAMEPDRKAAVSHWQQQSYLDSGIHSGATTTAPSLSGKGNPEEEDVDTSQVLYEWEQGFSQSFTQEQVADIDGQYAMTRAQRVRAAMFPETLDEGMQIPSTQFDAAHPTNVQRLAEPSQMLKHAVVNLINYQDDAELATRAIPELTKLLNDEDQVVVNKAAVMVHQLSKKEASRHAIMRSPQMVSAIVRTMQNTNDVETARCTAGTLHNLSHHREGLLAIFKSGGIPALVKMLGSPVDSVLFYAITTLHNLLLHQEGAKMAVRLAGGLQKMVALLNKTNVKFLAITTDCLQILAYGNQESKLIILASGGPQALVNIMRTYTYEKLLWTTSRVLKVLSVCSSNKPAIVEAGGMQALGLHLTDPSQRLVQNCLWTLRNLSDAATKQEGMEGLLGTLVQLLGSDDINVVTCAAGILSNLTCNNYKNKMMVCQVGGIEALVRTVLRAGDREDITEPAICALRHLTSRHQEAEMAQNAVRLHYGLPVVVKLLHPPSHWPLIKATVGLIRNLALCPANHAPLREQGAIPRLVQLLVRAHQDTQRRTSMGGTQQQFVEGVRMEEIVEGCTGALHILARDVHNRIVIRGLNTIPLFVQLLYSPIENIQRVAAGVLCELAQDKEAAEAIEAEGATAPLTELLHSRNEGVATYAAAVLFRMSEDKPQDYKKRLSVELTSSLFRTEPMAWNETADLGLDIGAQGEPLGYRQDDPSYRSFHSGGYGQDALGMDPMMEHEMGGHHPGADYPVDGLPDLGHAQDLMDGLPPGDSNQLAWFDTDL
Sequence of Catenin beta-1/Transcription factor 7-like 2 (Q9NQB0 whole entry): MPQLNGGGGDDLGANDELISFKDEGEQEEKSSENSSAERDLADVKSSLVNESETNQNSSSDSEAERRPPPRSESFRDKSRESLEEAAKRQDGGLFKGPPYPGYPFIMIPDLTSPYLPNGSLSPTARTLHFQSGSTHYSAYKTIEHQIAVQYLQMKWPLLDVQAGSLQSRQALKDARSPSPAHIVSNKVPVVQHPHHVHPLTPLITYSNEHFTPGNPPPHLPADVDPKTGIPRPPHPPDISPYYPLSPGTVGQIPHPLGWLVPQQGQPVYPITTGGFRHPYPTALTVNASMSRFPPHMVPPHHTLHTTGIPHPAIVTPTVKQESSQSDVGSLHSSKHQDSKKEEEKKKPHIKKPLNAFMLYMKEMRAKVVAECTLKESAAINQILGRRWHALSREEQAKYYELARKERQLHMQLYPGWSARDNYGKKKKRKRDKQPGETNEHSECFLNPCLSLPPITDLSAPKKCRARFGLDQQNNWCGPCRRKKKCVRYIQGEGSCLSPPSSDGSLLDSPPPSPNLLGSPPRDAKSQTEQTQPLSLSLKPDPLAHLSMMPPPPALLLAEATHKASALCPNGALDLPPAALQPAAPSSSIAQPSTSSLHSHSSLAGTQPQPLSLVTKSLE

In the case of `Cn1nc(-c2ccc(Cl)cc2)nc2c(=O)n(C)c(=O)nc1-2` [3-(4-Chloro-phenyl)-1,6-dimethyl-1H-pyrimido[5,4-e][1,2,4]triazine-5,7-dione], the IC50 is reported as 300 nM.
